Laboratory results reported in US8389523B2, “Substituted quinoxaline and an agrochemical composition thereof” (Kumiai Chemical Industry Co., Ltd., priority 2007, dated 2013).

Legend:
Assay type in all cases: in vivo
Parameters in all cases: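 grade 0 to 5 of growth suppression where 5 is 90% or more and 0 below 10%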
[1] = tested on: Scirpus juncoides Roxb. var. ohwianus. T. Koyama; test: Herbicidal effects in paddy field soil treatment (Test Example 1); details: paddy field soil treatment; 1000 g of the active ingredient per hectare; wettable powder added dropwise on water surface; 21st day after treatment
Description: (§1) Test for Herbicidal Effects in Paddy Field Soil Treatment
(§2) A 100-cm^2 plastic pot was filled with paddy field soil. After puddling and leveling, seeds of Echinochloa oryzicola Vasing, Monochoria vaginalis (Burm. f.) Presl var. plantaginea (Roxb.) Solms-Laub., and Scirpus juncoides Roxb. var. ohwianus. T. Koyama were sowed, and the soil was waterlogged to a water depth of 3 cm. On the next day, a wettable powder formulation prepared according to Preparation Example 1 was diluted with water, and was added dropwise on the water surface. The amount of application was an amount equivalent to 1000 g of the active ingredient per hectare. Thereafter, the plants were grown in a greenhouse, and on the 21st day after the treatment, the herbicidal effects were investigated according to the criteria described in Table 138.

[2] = tested on: Monochoria vaginalis (Burm. f.) Presl var. plantaginea (Roxb.) Solms-Laub.; test: as above; details: paddy field soil treatment; 1000 g of the active ingredient per hectare; wettable powder added dropwise on water surface; 21st day after treatment
Description: as §1, §2

[3] = tested on: Echinochloa oryzicola Vasing; test: as above; details: paddy field soil treatment; 1000 g of the active ingredient per hectare; wettable powder added dropwise on water surface; 21st day after treatment
Description: as §1, §2

Amaranthus viridis L. = test: Herbicidal effects in upland field soil treatment (Test Example 2); details: 1000 g active ingredient per hectare, 21st day after treatment, criteria of Table 138
Description: (§3) Test Example 2 Test on Herbicidal Effects in Upland Field Soil Treatment A 80-cm^2 plastic pot was filled with upland field soil. Seeds of Abutilon theophrasti medicus and Amaranthus viridis L. were sowed, and soil was covered. A wettable powder formulation prepared according to Preparation Example 1 was diluted with water, and was uniformly sprayed on the soil surface with a small sprayer, in an amount equivalent to 1000 liters per hectare, such that 1000 g of the active ingredient per hectare was applied. Thereafter, the plants were grown in a greenhouse, and on the 21st day after the treatment, the herbicidal effects were investigated according to the criteria described in the Table 138 shown above.

[4] = tested on: Abutilon theophrasti medicus; test: as above; details: 1000 g active ingredient per hectare, 21st day after treatment, criteria of Table 138
Description: as §3

Row | Compound | Herbicidal effects index, Scirpus juncoides Roxb. var. ohwianus. T. Koyama [1] | Herbicidal effects index, Monochoria vaginalis (Burm. f.) Presl var. plantaginea (Roxb.) Solms-Laub. [2] | Herbicidal effects index, Echinochloa oryzicola Vasing [3] | herbicidal effect (index) on Amaranthus viridis L. (Amaranthus viridis L.) | herbicidal effect (index) on Abutilon theophrasti medicus [4]
1 | Cc1ccc(-n2c(=O)c(C(=O)C3=C(O)CCCC3=O)nc3ccccc32)nc1 [I-178] | 5 | 5 | 4 | 5 | 5
2 | COc1ccc(-n2c(=O)c(C(=O)C3=C(O)CCCC3=O)nc3cc(Cl)ccc32)cc1 [II-195] | 5 | 5 | 5 | – | –
3 | COc1ccc(-n2c(=O)c(C(=O)C3=C(O)CCCC3=O)nc3cc(F)ccc32)cc1 [II-187] | 5 | 5 | 5 | – | –
4 | O=C1CCCC(O)=C1C(=O)c1nc2ccccc2n(-c2ccc3c(c2)OCCO3)c1=O [I-209, 1-(2,3-dihydrobenzo[b]1,4-dioxin-6-yl)-3-(2-hydroxy-6-oxo-1-cyclohexenecarbonyl)-quinoxalin-2(1H)-one] | 5 | 5 | 4 | 5 | 4
5 | O=C1CCCC(O)=C1C(=O)c1nc2ccccc2n(C2CCSCC2)c1=O [I-166] | 5 | 5 | 4 | – | –
6 | COc1ccc(-n2c(=O)c(C(=O)C3=C(O)CCCC3=O)nc3cc(C)ccc32)cc1 [II-246] | 5 | 5 | 4 | – | –
7 | CC(C(=O)OC(C)(C)C)n1c(=O)c(C(=O)C2=C(O)CCCC2=O)nc2cccnc21 (centres unmarked) [III-233] | – | – | – | 5 | 5
8 | COc1ccc(Cn2c(=O)c(C(=O)C3=C(O)CCCC3=O)nc3ccccc32)cc1 [I-126] | 5 | 5 | 4 | – | –
9 | COc1ccc(-n2c(=O)c(C(=O)C3=C(O)CCCC3=O)nc3ccccc32)c(Cl)c1 [II-175] | 5 | 5 | 4 | – | –
10 | CCNc1nc(NC(C)C)nc(-n2c(=O)c(C(=O)C3=C(O)CCCC3=O)nc3ccccc32)n1 [I-274] | 4 | 5 | 5 | – | –
11 | CC(=O)c1ccc(-n2c(=O)c(C(=O)C3=C(O)CCCC3=O)nc3ccccc32)cc1 [II-140] | 4 | 5 | 5 | – | –
12 | O=C1CCCC(O)=C1C(=O)c1nc2cc(F)ccc2n(Cc2ccccc2)c1=O [I-280] | 5 | 5 | 5 | – | –
13 | COC(=O)c1ccc(-n2c(=O)c(C(=O)C3=C(O)CCCC3=O)nc3ccccc32)cc1 [II-146] | – | – | – | 5 | 4
14 | COc1ccccc1Cn1c(=O)c(C(=O)C2=C(O)CCCC2=O)nc2ccccc21 [I-120] | 5 | 5 | 4 | – | –
15 | COc1ccc(-n2c(=O)c(C(=O)C3=C(O)CCCC3=O)nc3ccc(OC)cc32)cc1 [II-253] | 5 | 5 | 5 | – | –
16 | CC(C)(C)n1c(=O)c(C(=O)C2=C(O)CCCC2=O)nc2ccccc21 [I-18] | – | – | – | 5 | 5
17 | COc1ccc(-n2c(=O)c(C(=O)C3=C(O)CCCC3=O)nc3ccccc32)cc1OC [II-169] | 5 | 5 | 5 | – | –
18 | COc1ccc2c(c1)nc(C(=O)C1=C(O)CCCC1=O)c(=O)n2-c1ccccc1 [II-250] | – | – | – | 5 | 5
19 | Cn1c(=S)c(C(=O)C2=C(O)CCCC2=O)nc2ccccc21 [I-256, 3-hydroxy-2-(1-methyl-2-thioxo-1,2-dihydroquinoxalin-3-yl-carbonyl)-2-cyclohexen-1-one] | – | – | – | 5 | 5
20 | O=C1CCCC(O)=C1C(=O)c1nc2ccccc2n(-c2ccc(OCC(F)(F)F)cc2)c1=O [II-209] | 5 | 5 | 5 | – | –
21 | CS(=O)(=O)Cn1c(=O)c(C(=O)C2=C(O)CCCC2=O)nc2ccccc21 [I-80] | – | – | – | 5 | 5
22 | COc1ccc(-n2c(=O)c(C(=O)C3=C(O)CCCC3=O)nc3ccccc32)c(OC)c1 [II-177] | 5 | 5 | 4 | – | –
23 | COc1cccc(Cn2c(=O)c(C(=O)C3=C(O)CCCC3=O)nc3ccccc32)c1 [I-125] | 5 | 5 | 4 | – | –
24 | Cn1ccc2cc(-n3c(=O)c(C(=O)C4=C(O)CCCC4=O)nc4ccccc43)ccc21 [I-276] | 5 | 5 | 5 | – | –
25 | COc1c(F)cc(-n2c(=O)c(C(=O)C3=C(O)CCCC3=O)nc3ccc(C)cc32)cc1F [II-248] | 5 | 5 | 5 | – | –
26 | O=C1CCCC(O)=C1C(=O)c1nc2ccccc2n(Cc2ccc(Cl)cc2)c1=O [I-113] | 5 | 5 | 5 | – | –
27 | COc1ccc(-n2c(=O)c(C(=O)C3=C(O)CCCC3=O)nc3c(F)c(F)c(OC)c(F)c32)cc1 [II-302] | – | – | – | 5 | 4
28 | COc1ccc(-n2c(=O)c(C(=O)C3=C(O)CCCC3=O)nc3c(Cl)cc(Cl)cc32)cc1 [II-262] | – | – | – | 5 | 4
29 | COc1ccc(-n2c(=O)c(C(=O)C3=C(O)CCCC3=O)nc3ccccc32)cc1Cl [II-179] | 5 | 5 | 4 | – | –
30 | COc1ccc(-n2c(=O)c(C(=O)C3=C(O)CCCC3=O)nc3c(F)c(F)ccc32)cc1 [II-258] | 5 | 5 | 4 | – | –
